Assay results taken from PubChem BioAssay (NCI).
“And” between values parts separate entries of the source, which are not always exact repeats. Equal entries are not always repeated.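 Five concentrations, 48 hours, 96-well plates. At the GI50, growth is halved. TGI denotes the concentration required for complete inhibition of growth.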

Columns and labels:
Experiment in all cases: NCI tumour cell line growth inhibition, 48 h
COLO 205 colon = tested on: COLO 205 colon
KM12 colon = tested on: KM12 colon
NCI-H226 lung = tested on: NCI-H226 lung
OVCAR-3 ovarian = tested on: OVCAR-3 ovarian
PC-3 prostate = tested on: PC-3 prostate
RXF 393 renal = tested on: RXF 393 renal
SNB-75 CNS = tested on: SNB-75 CNS
UACC-257 melanoma = tested on: UACC-257 melanoma
UACC-62 melanoma = tested on: UACC-62 melanoma
HOP-92 NSCLC = tested on: HOP-92 NSCLC

## COc1ncc(-c2ccc3nccc(C#CCN4CCN(S(C)(=O)=O)CC4)c3c2)cc1NS(=O)(=O)c1ccc(F)cc1F
COLO 205 colon
  GI50: 0.0418 µM
  TGI: 1.18 µM
KM12 colon
  GI50: 0.293 µM
  TGI: 1.55 µM
NCI-H226 lung
  GI50: 0.298 µM
  TGI: 2.27 µM
OVCAR-3 ovarian
  GI50: 0.0466 µM
  TGI: 0.982 µM
PC-3 prostate
  GI50: 0.058 µM
  TGI: 10.9 µM
RXF 393 renal
  GI50: 0.0438 µM
  TGI: 0.354 µM
SNB-75 CNS
  GI50: 0.0106 µM
  TGI: 0.152 µM
UACC-257 melanoma
  GI50: 0.0386 µM
  TGI: 0.517 µM
UACC-62 melanoma
  GI50: 0.0342 µM
  TGI: 0.307 µM

## CC1(C)OC2C(CO)OC(n3ccc(N)nc3=O)C2O1 (configuration not stated)
COLO 205 colon
  TGI: > 100 µM
HOP-92 NSCLC
  TGI: > 100 µM
KM12 colon
  TGI: > 100 µM
NCI-H226 lung
  TGI: > 100 µM
OVCAR-3 ovarian
  TGI: > 100 µM
PC-3 prostate
  TGI: > 100 µM
RXF 393 renal
  TGI: > 100 µM
UACC-257 melanoma
  TGI: > 100 µM
UACC-62 melanoma
  TGI: > 100 µM

## C=C1c2[nH]c3ccccc3c2CC(C(=O)O)N1C(O)c1ccc(S(=O)(=O)O)cc1 (configuration not stated)
HOP-92 NSCLC
  TGI: > 100 µM
KM12 colon
  TGI: > 100 µM
NCI-H226 lung
  TGI: > 100 µM
OVCAR-3 ovarian
  TGI: > 100 µM
RXF 393 renal
  TGI: > 100 µM
SNB-75 CNS
  TGI: > 100 µM
UACC-257 melanoma
  TGI: > 100 µM
UACC-62 melanoma
  TGI: > 100 µM

## Cc1ccc(NC(=O)c2nc(S(C)(=O)=O)oc2-c2ccc(F)cc2)cc1Nc1ccc2ncn(C)c(=O)c2c1
HOP-92 NSCLC
  GI50: 1.91 µM
  TGI: 3.87 µM
KM12 colon
  GI50: 3.12 µM
  TGI: 11.1 µM
NCI-H226 lung
  GI50: 2.33 µM
  TGI: 5.52 µM
PC-3 prostate
  GI50: 2.13 µM
  TGI: 4.47 µM
SNB-75 CNS
  GI50: 2.13 µM
  TGI: 5.65 µM
UACC-257 melanoma
  GI50: 1.88 µM
  TGI: 3.72 µM
UACC-62 melanoma
  GI50: 2.03 µM
  TGI: 4.88 µM

## CCc1nc2ccccc2c(=O)n1/N=C(\N=Nc1ccc(Cl)cc1)c1ccccc1
COLO 205 colon
  TGI: > 100 µM
HOP-92 NSCLC
  TGI: 46.2 µM
KM12 colon
  TGI: 34.7 µM
NCI-H226 lung
  TGI: 63.4 µM
OVCAR-3 ovarian
  TGI: 57.1 µM
RXF 393 renal
  TGI: > 75.8 µM
SNB-75 CNS
  TGI: 40.1 µM
UACC-257 melanoma
  TGI: 59.6 µM
UACC-62 melanoma
  TGI: > 100 µM

## O=C1NC(=O)C2C1C1C=C3c4ccccc4N(c4ccccc4)C32[C@H]2C(=O)NC(=O)[C@@H]12 (some centres not stated)
COLO 205 colon
  TGI: > 100 µM
HOP-92 NSCLC
  TGI: > 100 µM
KM12 colon
  TGI: > 100 µM
NCI-H226 lung
  TGI: > 100 µM
OVCAR-3 ovarian
  TGI: > 100 µM
SNB-75 CNS
  TGI: > 100 µM
UACC-257 melanoma
  TGI: > 100 µM
UACC-62 melanoma
  TGI: > 100 µM

## C#CCn1c(=O)c2cccnc2n(CC#C)c1=O
COLO 205 colon
  TGI: > 100 µM
HOP-92 NSCLC
  TGI: > 100 µM
KM12 colon
  TGI: > 100 µM
NCI-H226 lung
  TGI: > 100 µM
RXF 393 renal
  TGI: > 100 µM
SNB-75 CNS
  TGI: > 100 µM
UACC-257 melanoma
  TGI: > 100 µM

## COC1=CC(=O)OC(/C=C(C)/C=C/C2=C(C)CCCC2(C)C)C1 (configuration not stated)
HOP-92 NSCLC
  TGI: > 100 µM
KM12 colon
  TGI: > 100 µM
NCI-H226 lung
  TGI: > 100 µM
OVCAR-3 ovarian
  TGI: > 100 µM
RXF 393 renal
  TGI: > 100 µM
SNB-75 CNS
  TGI: > 100 µM
UACC-257 melanoma
  TGI: > 100 µM
UACC-62 melanoma
  TGI: > 100 µM

## COC(=O)c1nc(C(=O)OC)c2c([nH]c3ccccc32)c1C(=O)OC
COLO 205 colon
  TGI: > 100 µM
HOP-92 NSCLC
  TGI: > 100 µM
KM12 colon
  TGI: > 100 µM
NCI-H226 lung
  TGI: > 100 µM
OVCAR-3 ovarian
  TGI: > 100 µM
RXF 393 renal
  TGI: > 100 µM
SNB-75 CNS
  TGI: > 100 µM
UACC-257 melanoma
  TGI: > 100 µM
UACC-62 melanoma
  TGI: > 100 µM

## COC(=O)[C@@H](C)C[C@H](Cc1ccccc1)NC(=O)c1csc([C@@H](C[C@H](C(C)C)N(C)C(=O)C2(NC(=O)[C@H]3CCCCN3C)CCC2)OC(C)=O)n1
COLO 205 colon
  GI50: 0.00335 µM and 0.0025 µM
  TGI: 0.12 µM and 0.0182 µM
HOP-92 NSCLC
  GI50: 0.000886 µM and 0.0025 µM
KM12 colon
  GI50: 0.00319 µM and 0.00522 µM
  TGI: > 25 µM
NCI-H226 lung
  GI50: 0.0547 µM
  TGI: > 25 µM
OVCAR-3 ovarian
  GI50: 0.000487 µM and 0.0025 µM
  TGI: 0.0101 µM and 0.00672 µM
PC-3 prostate
  GI50: 0.00406 µM and 0.0025 µM
  TGI: > 25 µM
SNB-75 CNS
  GI50: 0.00351 µM and 0.00319 µM
  TGI: > 25 µM
UACC-257 melanoma
  GI50: > 25 µM
  TGI: > 25 µM
UACC-62 melanoma
  GI50: 0.00244 µM and 0.0025 µM
  TGI: > 25 µM
